From paper PMC8709211, “Improving Membrane Activity and Cargo Delivery Efficacy of a Cell-Penetrating Peptide by Loading with Carboranes” (Pharmaceutics, 2021)

Experiments:
[1] = Circular dichroism spectroscopy (alpha-helical content, R-value); format: physicochemical; conditions: for % of alpha helix, 50% TFE / % of alpha helix, Phosphate Buffer: CD, calculated per ref 31; for % of alpha helix, 50% TFE: 20 µM peptide in 10 mM phosphate buffer (pH 7.0) with 50% TFE (v/v); for % of alpha helix, Phosphate Buffer / R-value, Phosphate Buffer: 20 µM peptide in 10 mM phosphate buffer (pH 7.0); for R-value, Phosphate Buffer / R-value, 50% TFE: ratio between the molar ellipticity values at 222 and 208 nm; for R-value, 50% TFE: 20 µM peptide in 10 mM phosphate buffer (pH 7.0) with 50% TFE
Protocol: Conjugates were dissolved in 10 mM phosphate buffer (pH 7.0), either alone or supplemented with 50% TFE (v/v), to a final concentration of 20 µM. CD spectra of all conjugates were recorded from 180–260 nm (0.5 nm intervals) on a J-715 spectropolarimeter (JASCO, Pfungstadt, Germany) in an N2 atmosphere.
To find out more, we performed CD spectroscopy for all peptides solved either in phosphate buffer or in phosphate buffer supplemented with trifluoroethanol (TFE), respectively. All conjugates and sC18 adopted an alpha-helix, when present in phosphate buffer with TFE (Figure S20). On the other hand, when CB-conjugates were solved in phosphate buffer only (Figure 1C), some of them directly formed distinct secondary structures. […] Taking this observation into account, we concluded that the number of CB moieties actually promoted the formation of alpha-helical structures. This effect might be further explained by the helical wheel projection of each conjugate showing that the hydrophobic face of the peptide was clearly enlarged when three or more CB units were attached (see Figure S21). […]

HeLa cells [2] = assay: Cell viability assay (resazurin); format: cell-based; conditions: 37 °C, serum-free medium, 125 nM–100 µM, relative to untreated cells
Protocol: In total, 17.000 HeLa cells per well were seeded onto 96-well plates (Sarstedt, Nümbrecht, Germany). After confluency of 80–90% was reached, the growth medium was removed, and cells were incubated with 100 µL of peptide solution of different concentrations (125 nM–100 μM in serum-free medium) for 24 h at 37 °C. For a positive control, cells were treated with 70% EtOH for 10 min. Cells were washed with serum-free medium and incubated with 10% (v/v) resazurin (Sigma-Aldrich, Merck group: Darmstadt, Germany) in serum-free medium for 1.5 h at 37 °C. Cell viability was determined by measurement of the resorufin product at 595 nm (λex = 550 nm) on a Tecan infinite M200 plate reader (Tecan Group AG, Männedorf, Switzerland). Viability was calculated from the fluorescence values of treated cells in relation to untreated cells.

[3] = Critical micelle concentration (CMC) determination by UV-VIS; format: physicochemical; conditions: peptide in water, 1–200 µM; UV absorbance at 255 nm plotted against logarithm of peptide concentration, intersection point of two lines
Protocol: Peptide conjugates were dissolved in water and different concentrations (1–200 µM) were prepared. UV-VIS spectra ranging from 200–700 nm were recorded using a 1 cm path length quartz cuvette in a Spectroquant Pharo 300 photometer (Merck, Darmstadt, Germany). The absorbance at 255 nm was plotted against the logarithm of the peptide concentration. The intersection point of two lines was determined as CMC.
Since this effect was obviously dependent on the hydrophobic nature of the conjugates, we were then interested in whether they would also self-assemble and form nanostructures, such as micelles or fibrils. An easy to apply and fast method makes use of changes in spectroscopic properties associated with micelle formation. For this, one measures the UV absorbance at a specific wavelength as a function of the concentration. Because aggregates like micelles and free molecule species contribute to a different extent to the absorbed UV light, an abrupt change of the slope occurs above a certain point. The corresponding concentration is defined as the critical micelle concentration (CMC). We measured the UV-VIS spectra of all CB-sC18 conjugates and observed for all an additional concentration-dependent maximum at 255 nm (Figure 1A,B and Table 2), whereas this maximum was not detected for meta-carborane-1-carboxylic acid (Figure S14) or sC18 alone (Figure S15).
Thus, we hypothesized this maximum as evidence for a possible self-assembly, and by plotting the absorbance at 255 nm against the logarithm of the peptide concentration, we assigned the intersection point as CMC.

[4] = CF-leakage assay, zwitterionic LUVs; conditions: 1 µM peptide, 25 °C, 90 min; fluorescence, normalized to Triton x-100; duplicate, n = 2
Protocol: (§1) Large unilamellar vesicles (LUVs) were prepared by dissolving different lipids in CHCl3, to reach the desired compositions (lipids were purchased from Avanti Polar Lipids, Inc., Alabaster, AL, USA). To remove the solvent, the mixture was placed into a round-bottomed flask on ice and the solvent was evaporated under reduced pressure for 20 min at 40 °C and afterwards under vacuum for another 5 min. The dried lipid film was then hydrated with HKS buffer (25 mM HEPES, 150 mM KCl, pH 7.4, 10% sucrose (w/v)), supplemented with 100 mM 5(6)-carboxyfluorescein (CF), and homogenized for 5 min at 45 °C to form liposomes (final concentration: 8 mM). The resulting multilamellar vesicle dispersion underwent 10 freeze/thawing cycles and was passed 21 times through a mini extruder (0.4 µm polycarbonate treck-etch membrane; Avanti Polar Lipids, Inc., Alabaster, AL, USA). External CF was removed by size exclusion chromatography (PD10 column, GE Healthcare, Chicago, IL, USA). Peptides were added to the LUVs and the CF release was monitored by measuring the increased fluorescence intensity on a plate reader (Biotek, Winooski, VT, USA). […]
(§2) Our results thus far inspired us to investigate how the novel CB-conjugates would perform in a lipid environment. […] Both lipid systems were additionally loaded with CF in order to monitor membrane leakage via fluorescence dye outflow.

[5] = CF-leakage assay, negatively charged LUVs; conditions: 1 µM peptide, 25 °C, 90 min; fluorescence, normalized to Triton x-100; duplicate, n = 2
Protocol: as §1, §2

HeLa cells [6] = assay: Cellular uptake by flow cytometry; format: cell-based; conditions: 1 µM CF-labeled peptide, serum-free medium, 30 min, 37 °C, triplicate, n = 3
Protocol: HeLa cells were seeded onto 24-well plates (Sarstedt, Nümbrecht, Germany, 100,000 cells per well, respectively). After reaching 80–90% confluency, medium was removed, and cells were incubated with 1 µM CF-labeled peptide solution in serum-free medium for either 30 min or 2 h at 37 °C. The peptide solution was removed, cells were washed twice with PBS, and trypsinized for 5 min. Detached cells were resuspended in full medium (phenol red free) and afterwards analyzed using a guava easycyte HT flow cytometer (Merck, Darmstadt, Germany).

human red blood cells = assay: Hemolysis assay; format: cell-based; conditions: human RBCs 5% (v/v in PBS), 37 °C, up to 25 µM peptide, absorption at 560 nm, normalized to Triton-x-100 control, triplicate, n = 2
Protocol: Human red blood cells were washed five times with PBS (4 °C, 3000× g, 5 min) and diluted to 5% (v/v in PBS). In total, 100 µL of this solution were transferred into a fresh 96-well plate. In total, 50 µL of peptide solution were added and gently resuspended. Red blood cells were incubated for either 1 or 24 h at 37 °C and 5% CO2, respectively. In total, 50 µL of 10% Triton-x-100 were added 10 min prior to the end of the incubation time and served as a positive control. After incubation, cells were centrifuged (r.t., 2500× g, 3 min). The supernatant was carefully transferred into a fresh 96-well plate and the absorption at 560 nm was measured on a Tecan infinite M200 plate reader (Tecan Group AG, Männedorf, Switzerland). The measured absorption referred to the hemoglobin concentration.
Next, we incubated human red blood cells (RBCs) with different concentrations of CB-sC18 conjugates at 37 °C for 1 or 24 h, respectively. Since their cell membranes are mainly composed of neutral lipids, RBCs serve as an excellent biological model for the lytic activity of a peptide. […] For sC18, this agreed with the detected low activity when in contact with zwitterionic LUVs. […] The same activity profile was observed when incubating peptide conjugates with RBCs for only one hour (Figure S30), whereas the effects started at concentrations higher than 5 µM. […]

Substance	% of alpha helix, 50% TFE [1]	% of alpha helix, Phosphate Buffer [1]	R-value, Phosphate Buffer [1]	R-value, 50% TFE [1]	Cytotoxicity towards HeLa cells, 24 h (HeLa cells [2])	CMC [3]	CF release (leakage) from zwitterionic LUVs [4]	CF release (leakage) from negatively charged LUVs [5]	Cellular uptake into HeLa cells, 30 min (HeLa cells [6])	Hemolytic activity towards RBCs, 24 h (human red blood cells)
LLIILRRRIRKQAHAHSK [pVEC, VE-cadherin-derived cell-penetrating peptide, reference compound]	48.60%	12.18%	0.37	0.73						
meta-carborane-1-carboxylic acid [reference compound]					nearly no cytotoxicity					
CB-KKKK-GLRKRLRKFRNKIKEK [CB5-sC18, sC18 conjugate bearing five meta-carborane clusters]	50.15%	21.09%	0.87	0.92		44.37 ± 1.16 µM	same leakage profile as CB1-sC18	increased outflow of CF	decreased again	
KKK‐LLIILRRRIRKQAHAHSK [CB3-pVEC, pVEC conjugate bearing three meta-carborane clusters]	65.76%	16.98%	0.99	0.82						
K‐LLIILRRRIRKQAHAHSK [CB1-pVEC, pVEC conjugate bearing one meta-carborane cluster]	44.28%	17.72%	0.57	0.82						
KKK-GLRKRLRKFRNKIKEK [CB3-sC18, sC18 conjugate bearing three meta-carborane clusters]	56.10%	16.68%	0.56	0.88		44.46 ± 1.14 µM				
KK‐LLIILRRRIRKQAHAHSK [CB2-pVEC, pVEC conjugate bearing two meta-carborane clusters]	51.36%	20.41%	0.84	0.82						
KK-GLRKRLRKFRNKIKEK [CB2-sC18, sC18 conjugate bearing two meta-carborane clusters]	60.49%	5.45%		0.89						able to lyse RBCs
KKKK‐LLIILRRRIRKQAHAHSK [CB4-pVEC, pVEC conjugate bearing four meta-carborane clusters]	59.84%	22.59%	0.92	0.84						
CB‐KKKK‐LLIILRRRIRKQAHAHSK [CB5-pVEC, pVEC conjugate bearing five meta-carborane clusters]	45.48%	22.96%	0.79	0.79						
